Here are results for ten molecules from ChEMBL document CHEMBL1201862, “PubChem BioAssay data set” (2004).

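All cell lines were grown in 96-well plates and treated with compound for 48 hours. GI50 = concentration required for 50% inhibition of growth.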 Calls of active or inactive are those of the source. Cut-off read from the data, not from the text of the source: active = GI50 up to about 1.1 µM and inactive = higher.

Common to all, as to assay: inhibition of tumour cell growth, NCI panel, 48 h
In assay [1] the test system is MOLT-4.
Assay [2] concerns NCI-H23.
Assay [3] relates to IGROV-1.
In assay [4] the test system is MDA-MB-435.
Assay [5] has as its system CAKI-1.
The subject of assay [6] is NCI/ADR-RES.
Assay [7] relates to CCRF-CEM.
Assay [8] relates to DU-145.
Assay [9] deals with SK-MEL-2.
In assay [10] the test system is Hs-578T.
In assay [11] the test system is SW-620.
The subject of assay [12] is SK-MEL-28.
Assay [13] relates to HCT-15.
Assay [14] concerns 786-0.
The test system of assay [15] is SNB-19.
The subject of assay [16] is SN12C.
The subject of assay [17] is COLO 205.
For assay [18], the system named is OVCAR-8.
Assay [19] deals with SNB-75.
The test system of assay [20] is MCF7.

Turning to `CC(C)(C)C(=O)C(CC(=O)c1ccccc1)C(=O)C(C)(C)C`, the GI50 in assay [1], in assay [2], in assay [3], in assay [4], in assay [5] and in [6] was > 100 µM (inactive) throughout. Also, the GI50 was > 100 µM (inactive) in assay [7]; > 100 µM (inactive) in assay [8]; > 100 µM (inactive) in assay [9]; 77.3 µM (inactive) in assay [10]; > 100 µM (inactive) in assay [11]; > 100 µM (inactive) in [12]. For the same molecule, the GI50 in assay [13] is greater than 100 µM; in assay [14] it was > 100 µM (inactive); in assay [15] it was > 100 µM (inactive); in assay [16] it was > 100 µM (inactive); in [17], > 100 µM (inactive); in assay [18], > 100 µM (inactive). The figures for the GI50 in [19] and in [20] were 15.3 µM (inactive) and > 100 µM (inactive), respectively.

On to `O=C1/C(=C/c2ccc([N+](=O)[O-])cc2)C(=O)N(c2ccccc2)C1c1ccccc1` (stereo not given), for which the GI50 in assay [1], in assay [2], in [3], in assay [4], in [5] and in [6] was > 10 µM (inactive) in each case. Further, the GI50 in [7], in assay [8], in assay [9], in assay [10], in [11] and in [12] was > 10 µM (inactive) in each case. In addition, the GI50 was greater than 10 µM in assay [13]; > 10 µM (inactive) in [14]; > 10 µM (inactive) in [15]; > 10 µM (inactive) in assay [16]; > 10 µM (inactive) in assay [17]; > 10 µM (inactive) in assay [18]. Moreover, the GI50 in assay [19] and in assay [20] was > 10 µM (inactive) each time.

Regarding `Nc1cc2[nH]c(=O)c3cc(Cl)ccc3c2cc1Cl`, the GI50 was 4.11 µM (inactive) in [1]; 15.8 µM (inactive) in [2]; 4.07 µM (inactive) in assay [3]; 14.3 µM (inactive) in assay [4]; 8.38 µM (inactive) in assay [5]; 13.3 µM (inactive) in assay [6]. In addition, the GI50 is 18.7 µM (inactive) in assay [7]; 12 µM (inactive) in [8]; 25 µM (inactive) in assay [9]; 39.1 µM (inactive) in [10]; 8.55 µM (inactive) in [11]; 60.4 µM (inactive) in assay [12]. Moreover, the GI50 in assay [13] was 8.17 µM; in assay [14] it was 14.8 µM (inactive); in [15], 8.47 µM (inactive); in assay [16], 10.2 µM (inactive); in [17], 43.9 µM (inactive); in assay [18] it was 3 µM (inactive). Moreover, the values for the GI50 in assay [19] and in [20] were 15.5 µM (inactive) and 0.149 µM (active), respectively.

Consider `C1=CC2C=CC(C=C1)P2c1ccccc1` (stereo not given), for which the GI50 in assay [1], in [2], in assay [3], in assay [4], in assay [5] and in [6] was > 100 µM (inactive) each time. Besides, the GI50 in assay [7], in assay [8], in assay [9], in assay [10], in [11] and in assay [12] was > 100 µM (inactive) each time. The GI50 was greater than 100 µM in [13]; > 100 µM (inactive) in [14]; > 100 µM (inactive) in [15]; > 100 µM (inactive) in [16]; > 100 µM (inactive) in [17]; > 100 µM (inactive) in [18]. Also, the GI50 in [19] and in assay [20] was > 100 µM (inactive) throughout.

Consider `O=C1C(N2CCOCC2)=C(Cl)C(=O)c2ncccc21`, for which the GI50 is 0.443 µM (active) in [1]; 1.6 µM (inactive) in [2]; > 8.53 µM (inactive) in assay [3]; 1.73 µM (inactive) in assay [4]; > 10 µM (inactive) in assay [5]; 8.49 µM (inactive) in assay [6]. In addition, the GI50 is 0.524 µM (active) in assay [7]; > 6.73 µM (inactive) in [8]; 1.87 µM (inactive) in assay [9]; 3.99 µM (inactive) in assay [10]; 1.87 µM (inactive) in assay [11]; 2.2 µM (inactive) in assay [12]. Also, the GI50 in [13] was 2.03 µM; in [14], 1.84 µM (inactive); in assay [15], > 10 µM (inactive); in assay [16], 1.75 µM (inactive); in assay [17], 2.24 µM (inactive); in assay [18], 2.61 µM (inactive). Moreover, the GI50 was > 10 µM (inactive) in assay [19] and 1.81 µM (inactive) in [20].

Consider `Cc1ccc(/N=N/c2ccc(O)c(CN(C)C)c2)cc1`, for which the GI50 in [1] is 19.2 µM (inactive); in assay [2], 36.1 µM (inactive); in assay [3], 15.1 µM (inactive); in [4] it was 17.3 µM (inactive); in [5], 21.5 µM (inactive); in assay [6], 22.6 µM (inactive). Further, the GI50 was 22.8 µM (inactive) in assay [7]; 17.8 µM (inactive) in assay [8]; 15.2 µM (inactive) in assay [9]; 18.5 µM (inactive) in assay [10]; 20.7 µM (inactive) in assay [11]; 20 µM (inactive) in [12]. The GI50 in assay [13] is 20.6 µM; in assay [14], 22.3 µM (inactive); in [15], 36.6 µM (inactive); in assay [16] it was 35.8 µM (inactive); in [17], 17.7 µM (inactive); in assay [18], 21.4 µM (inactive). The GI50 is 21.6 µM (inactive) in assay [19] and 24.2 µM (inactive) in assay [20].

For `OC[C@H]1N[C@H](CO)[C@@H](O)[C@H]1O`, the GI50 in [1], in [2], in assay [3], in assay [4], in [5] and in assay [6] was > 100 µM (inactive) throughout. The GI50 in [7], in assay [8], in assay [9], in assay [10], in assay [11] and in [12] was > 100 µM (inactive) each time. Moreover, the GI50 was greater than 100 µM in assay [13]; > 100 µM (inactive) in assay [14]; > 100 µM (inactive) in [15]; > 100 µM (inactive) in [16]; > 100 µM (inactive) in [17]; > 100 µM (inactive) in assay [18]. Besides, the GI50 in [19] and in assay [20] was > 100 µM (inactive) throughout.

Consider `O=C(O)Cn1ccc(=O)c2ccc([N+](=O)[O-])cc21`, for which the GI50 in assay [1], in assay [2], in assay [3], in assay [4], in [5] and in assay [6] was > 100 µM (inactive) each time. Besides, the GI50 in [7], in assay [8], in assay [9], in assay [10], in assay [11] and in assay [12] was > 100 µM (inactive) throughout. Besides, the GI50 was greater than 100 µM in assay [13]; > 100 µM (inactive) in assay [14]; > 100 µM (inactive) in assay [15]; > 100 µM (inactive) in assay [16]; > 100 µM (inactive) in assay [17]; > 100 µM (inactive) in assay [18]. Besides, the results for the GI50 in assay [19] and in [20] were 38.4 µM (inactive) and > 100 µM (inactive), respectively.

With `CN(C)CCCn1nc(N)c2nc3cc(Cl)ccc3nc21`, the GI50 in [1] is > 50.4 µM (inactive); in assay [2], 81.8 µM (inactive); in assay [3] it was 22.9 µM (inactive); in assay [4] it was 34 µM (inactive); in assay [5], > 79.6 µM (inactive); in assay [6], 71.8 µM (inactive). In addition, the GI50 in assay [7] is 31 µM (inactive); in assay [8], 54.8 µM (inactive); in assay [9] it was 28.3 µM (inactive); in assay [10], 41.4 µM (inactive); in [11] it was 36.2 µM (inactive); in [12] it was 18.1 µM (inactive). For the same molecule, the GI50 in assay [13] was 48.9 µM; in assay [14] it was 50.7 µM (inactive); in assay [15] it was 65.3 µM (inactive); in assay [16], 59.8 µM (inactive); in assay [17] it was 33 µM (inactive); in assay [18], 40.2 µM (inactive). For the same molecule, the GI50 in assay [19] was 67.8 µM (inactive); in assay [20], 33.3 µM (inactive).

For `CN1CCCC2C(c3ccccc3)C(C3=NCCCC3)C(c3ccccc3)CC21` (stereo not given), the GI50 is 31.3 µM (inactive) in assay [1]; 64.7 µM (inactive) in [2]; 50 µM (inactive) in [3]; 19.5 µM (inactive) in [4]; > 100 µM (inactive) in [5]; 53.8 µM (inactive) in assay [6]. Besides, the GI50 in [7] was 35.2 µM (inactive); in assay [8], > 100 µM (inactive); in [9], > 100 µM (inactive); in [10], 21.7 µM (inactive); in assay [11], 48.6 µM (inactive); in assay [12], 16.2 µM (inactive). Further, the GI50 in [13] is 27.2 µM; in assay [14], 24.5 µM (inactive); in [15] it was > 100 µM (inactive); in assay [16], > 100 µM (inactive); in assay [17] it was 26.4 µM (inactive); in [18], 39.5 µM (inactive). The GI50 in assay [19] was 13.6 µM (inactive); in assay [20] it was 56.6 µM (inactive).
